Key:
p53 in A2780 cells = assay: p53 ELISA (preservation of p53 in A2780 cells); format: cell-based, human; details: 16 hours treatment; for minimal effective concentration: Homo sapiens, A2780, 16 h, read-out: p53-elisa LAD (lowest dose giving at least 140% of the value for p53 present in the control)
Description: The capacity of the present compounds to preserve p53 in A2780 cells was measured with the p53 enzyme linked immunosorbent assay. The p53 assay is a “sandwich” enzyme immunoassay employing two polyclonal antibodies. A polyclonal antibody, specific for the p53 protein, has been immobilized onto the surface of the plastic wells. Any p53 present in the sample to be assayed will bind to the capture antibody. The biotinylated detector polyclonal antibody also recognizes p53 protein, and will bind to any p53, which has been retained by the capture antibody. The detector antibody, in turn, is bond by horseradish peroxidase-conjugated streptavidin. The horseradish peroxidase catalyses the conversion of the chromogenic substrate o-phenylene diamine, the intensity of which is proportional to the amount of p53 protein bond to the plate. The colored reaction product is quantified using a spectrophotometer. Quantitation is achieved by the construction of a standard curve using known concentrations of purified recombinant HIS tagged p53 protein (see example C.1.).
A2780 cells (ATCC) were cultivated in RPMI 1640 supplemented with 10% fetal calf serum (FCS), 2 mM L-glutamine and gentamycin at 37° C. in a humidified incubator with 5% CO2.
A2780 cells were seeded at 20.000 cells per well in a 96 well plate, cultured for 24 hours and treated with compound for 16 hours at 37° C. in a humidified incubator. After incubation, the cells were washed once with phosphate-buffered saline and 30 μl, per well, low salt RIPA buffer (20 mM tris, pH7.0, 0.5 mM EDTA, 1% Nonidet P40, 0.5% DOC, 0.05% SDS, 1 mM PMSF, 1 μg/ml aprotinin and 0.5 μ/ml leupeptin) was added. Plates were placed on ice for 30 minutes to complete the lysis. p53 protein was detected in de lysates by using the sandwich ELISA, described below.
High binding polystyrene EIA/RIA 96 well plates (Costar 9018) were coated with the capture antibody pAb1801 (Abcam ab28-100) at a concentration of 1 μg/ml in coating buffer (0.1 M NaHCO3 pH8.2), 50 μl per well. The antibody was allowed to adhere overnight at 4° C. Coated plates were washed once with phosphate-buffered saline (PBS)/0.05% Tween 20 and 300 μl of blocking buffer (PBS, 1% bovine serum albumins (BSA)) was added, for an incubation period of 2 hours at room temperature. Dilutions of purified recombinant HIS tagged p53 protein, ranging from 3-200 ng/ml, were made in blocking buffer and used as standards.
Plates were washed twice with PBS/0.05% Tween 20 and blocking buffer or standards were added at 80 μl/well. To the standards, 20 μl of lysis buffer was added. The samples were added to the other wells at 20 μl lysate/well. After an overnight incubation at 4° C., plates were washed twice with PBS/0.05% Tween 20. Aliquots of 100 μl secondary polyclonal antibody p53(FL-393) (Tebubio, sc-6243) at a concentration of 1 μg/ml in blocking buffer were added to each well and allowed to adhere for 2 hours at room temperature. Plates were washed three times with PBS/0.05% Tween 20. Detection antibody anti-rabbit HRP (sc-2004, Tebubio) at 0.04 μg/ml in PBS/1% BSA was added and incubated for 1 hour at room temperature. Plates were washed three times with PBS/0.05% Tween 20 and 100 μl of substrate buffer was added (substrate buffer was prepared shortly before use by adding 1 tablet of 10 mg o-phenylene diamine (OPD) from Sigma and 125 μl 3% H2O2 to 25 ml OPD buffer: 35 mM citric acid, 66 mM Na2HPO4, pH5.6). After 5 to 10 minutes, colour reaction was stopped by adding 50 μl stop buffer (1 M H2SO4) per well. The absorbance at dual wavelengths of 490/655 nm was measured using a Biorad micro plate reader and the results were then analyzed.
For each experiment, controls (containing no drug) and a blank incubation (containing no cells or drugs) were run in parallel. The blank value was subtracted from all control and sample values. For each sample, the value of p53 (in absorbance units) was expressed as the percentage of the value for p53 present in the control. […]

[1] = test system: human prostate cancer cell line DU145; assay: Alamar Blue cell proliferation assay, DU145; format: cell-based; details: for DU145 cell proliferation inhibition pIC50: DU145 cells; for IC50: Homo sapiens, DU-145, DU145 cells, read-out: DU145 cell proliferation inhibition pIC50 (converted)
Description: For experiments in 384 wells plates the cells were seeded at a density of 5×10^3 cells/ml in Falcon 384-well culture plates (Life Technologies, Merelbeke, Belgium), black with clear bottom, in 45 μl culture medium. Cells were allowed to adhere to plastic for 24 hr. The tested compound was pre-diluted (1/50 in culture medium) and 5 μl pre-diluted compound was added to the wells. Following 4-day incubation, 10 μl of the Alamar Blue solution was added to each well and the cells were further incubated for 5 hrs (A2780) at 37° C. The fluorescence intensity was measured for each well with a Fluorescence plate reader (Fluorskan, Labsystems, 540 nm excitation and 590 nm emission)
The antiproliferative activity was calculated as percentage of remaining viable cells in treated versus control (untreated cells) conditions. Within an experiment, the result for each experimental condition is the mean of 3 replicate wells. When appropriate, the experiments were repeated to establish full concentration-response curves. When appropriate, IC50-values (concentration of the drug, needed to reduce cell growth to 50% of the control) were computed using probit analysis for graded data (Finney, D. J., Probit Analyses, 2nd Ed. Chapter 10, Graded Responses, Cambridge University Press, Cambridge 1962). Herein the effects of test compounds are expressed as pIC50 (the negative log value of the IC50-value (M)) (see Table 5A).
Compounds were also tested according to the above protocol but using other cell lines: colorectal cancer cell line HCT116, non-small cell lung cancer cell line H1299, human prostate cancer cell line DU145.

Row | Compound | p53-elisa LAD (lowest dose giving at least 140% of the value for p53 present in the control) (p53 in A2780 cells) [µM] | DU145 cell proliferation inhibition pIC50 [1] | IC50 [1] [µM] | minimal effective concentration (p53 in A2780 cells) [µM]
1 | Cc1cc(Nc2ccnc3c2CCC3O)ccc1NCCc1c[nH]c2c(C(C)O)cccc12 (single isomer, unassigned) [Compound 12] | 0.10 |  |  | 
2 | Cc1cc(Nc2ccnc3c2CCC3O)ccc1NCCc1c[nH]c2c(C(C)O)cccc12 (single isomer, unassigned) [Compound 15] | 0.10 |  |  | 
3 | Cc1cc(Nc2ccnc3c2CCC3O)ccc1NCCc1c[nH]c2c(CCO)cccc12 (single isomer, unassigned) [Compound 23] | 3.00 | 5 |  | 
4 | COC1CCc2c(Nc3ccc(NCCc4c[nH]c5c(C(C)(C)O)cccc45)cc3)ccnc21 (single isomer, unassigned) [Compound 24] | 0.03 |  | 0.295 | 
5 | COC1CCc2c(Nc3ccc(NCCc4c[nH]c5c(C(C)(C)O)cccc45)cc3)ccnc21 (single isomer, unassigned) [Compound 25] | 0.10 |  |  | 
6 | Cc1cc(Nc2ccnc3c2CCC3(C)O)ccc1NCCc1c[nH]c2c(C(C)(C)O)cccc12 (single isomer, unassigned) [Compound 26] | 0.10 | 6.18 |  | 
7 | Cc1cc(Nc2ccnc3c2CCC3(C)O)ccc1NCCc1c[nH]c2c(C(C)(C)O)cccc12 (single isomer, unassigned) [Compound 27] |  |  | 1 | 0.1
8 | COC1CCc2c(Nc3ccc(NCCc4c[nH]c5c(C(C)(C)O)cccc45)c(C)c3)ccnc21 (single isomer, unassigned) [Compound 28] | 0.10 | 6.52 |  | 
9 | COC1CCc2c(Nc3ccc(NCCc4c[nH]c5c(C(C)(C)O)cccc45)c(C)c3)ccnc21 (single isomer, unassigned) [Compound 29] | 0.03 | 6.58 |  | 
10 | CC(C)(O)c1cccc2c(CCNc3ccc(Nc4ccnc5c4CCC5(C)O)cc3)c[nH]c12 (single isomer, unassigned) [Compound 30] | 0.10 | 6.14 |  | 
11 | CC(C)(O)c1cccc2c(CCNc3ccc(Nc4ccnc5c4CCC5(C)O)cc3)c[nH]c12 (single isomer, unassigned) [Compound 31] | 0.10 | 6.04 |  | 
12 | Cc1cc(Nc2ccnc3c2CCC3(C)O)ccc1NCCc1c[nH]c2c(C(C)(C)O)cccc12 (stereo not shown) [Compound 1] |  |  | 1.2 | 0.1
13 | Cc1cc(Nc2ccncc2)ccc1NCCc1c[nH]c2c(C(C)(C)O)cccc12 [Compound 2] |  |  | 0.692 | 0.1
14 | Cc1cc(Nc2ccnc3c2CCC3=O)ccc1NCCc1c[nH]c2c(C(C)O)cccc12 (stereo not shown) [Compound 4] |  |  | 5.13 | 0.1
15 | Cc1cc(Nc2ccnc(CO)c2)ccc1NCCc1c[nH]c2c(C(C)O)cccc12 (stereo not shown) [Compound 5] |  |  | 2.75 | 0.1
16 | OCc1cccc2c(CCNc3ccc(Nc4ccnc5c4CCC5O)cc3)c[nH]c12 (stereo not shown) [Compound 6] |  |  |  | 1
17 | C=C(C)c1cccc2c(CCNc3ccc(Nc4ccnc5c4CCC5OC)cc3)c[nH]c12 (stereo not shown) [Compound 7] |  |  | 0.251 | 0.3
18 | Cc1cc(Nc2ccnc3c2CCC3O)ccc1NCCc1c[nH]c2c(CCC(C)O)cccc12 (stereo not shown) [Compound 9] |  |  | 5.5 | 1
19 | Cc1cc(Nc2ccnc3c2CCC3(C)O)ccc1NCCc1c[nH]c2c(C(C)O)cccc12 (stereo not shown) [Compound 10] | 1.0 | 5.65 |  | 
20 | COc1cc(Nc2ccnc3c2CCC3O)ccc1NCCc1c[nH]c2c(C(C)(C)O)cccc12 (stereo not shown) [Compound 11] | 0.30 | 6.21 |  | 
21 | COC1CCc2c(Nc3ccc(NCCc4c[nH]c5c(C(C)O)cccc45)c(C)c3)ccnc21 (stereo not shown) [Compound 16] | 0.30 | 5.98 |  | 
22 | Cc1cc(Nc2ccnc3c2CCC3O)ccc1NCCc1c[nH]c2c(C(C)(C)O)cccc12 (stereo not shown) [Compound 18] | 0.03 | 6.40 |  | 
23 | Cc1cc(Nc2ccnc(CO)c2)ccc1NCCc1c[nH]c2c(C(C)(C)O)cccc12 [Compound 19] | 0.10 | 5.74 |  | 
24 | Cc1cc(Nc2ccnc3c2CCC3O)ccc1NCCc1c[nH]c2c(C(C)(C)O)cccc12 (stereo not shown) [Compound 20] |  | 5.73 |  | 0.03
25 | Cc1cc(Nc2ccncc2)ccc1NCCc1c[nH]c2c(C(O)C(C)C)cccc12 (stereo not shown) [Compound 22] | 3.00 | 5.07 |  | 
